Source: patent publication US10092578B2, “Active agents and their oligomers and polymers” (Polymerix Corporation, priority 2006, dated 2018)
In brackets after ≈: the same amount, converted by molar mass.

Tests used:
[1] = Particle size determination by light scattering; type: physicochemical; settings: for Average % of particles below 10 μm / Average % of particles below 100 μm / Average % of particles below 200 μm: average of 3 samples; for Volume Mean Particle Diameter: light scattering
Description: Light scattering techniques were employed to assess the particle size distributions of samples of the compositions of Examples 1 and 2 and Comparative Example 1.

[2] = tested on: mixed Coryne/Staph milieu; assay: Biosys bacterial growth test, mixed Coryne/Staph; type: cell-based, Corynebacter/Staph; settings: for % Red (average reduction in bacterial growth rates): 24 hours
Description: (§1) Samples of Examples 1 and 2 and Comparative Example 1 were evaluated in two different bacterial growth assays. The first test was a standard Minimum Inhibitory Concentration (MIC) assessment involving serial dilution of test compound particle suspensions in water. In this test, the samples were evaluated at 24 hours against human derived Staphylococcus epidermidis and Corynebacter sp. form organisms. The second test utilized a Biosys® system to assess the effect of the samples added as a dry powder directly to a nutrient broth containing either human derived Staph epidermidis or a mixed Coryne/Staph milieu. In the case of the Biosys test, the bacteria laced nutrient broth alone was used as the negative control.

[3] = tested on: human derived Staph epidermidis; assay: Biosys bacterial growth test, Staph epidermidis; type: cell-based, Staphylococcus epidermidis; settings: for % Red (average reduction in bacterial growth rates): 24 hours
Description: as §1

[4] = tested on: human derived Staphylococcus epidermidis; assay: Minimum Inhibitory Concentration (MIC) assessment, Staph epidermidis; type: cell-based; settings: for antibacterial activity (in words): MIC test, summary of Table 3; for MIC: Staphylococcus epidermidis, 24 hours, particle suspensions in water, read-out: MIC versus Staph epidermidis
Description: as §1

[5] = Salicylic acid release into artificial sweat; type: physicochemical; settings: 35° C.
Description: FIG. 1 illustrates salicylic acid release at 35° C. Samples of Example 1 (square), Example 2 (triangle) and Comparative Example 1 (diamond) were placed in artificial sweat or artificial sweat plus proteins and incubated at 35° C. for 3 to 5 minutes, 1, 2, 4, 6 and 24 hours, rapidly filtered (0.22 μm filter) and analyzed for salicylic acid by HPLC.
Samples of Example 1 and 2 and Comparative Example 1 were placed in artificial sweat or artificial sweat plus proteins and incubated at 35° C. for 3 to 5 minutes, 1, 2, 4, 6 and 24 hours, rapidly filtered (0.22 μm filter) and analyzed for salicylic acid by HPLC.

[6] = tested on: Corynebacter sp. form organisms; assay: Minimum Inhibitory Concentration (MIC) assessment, Coryne form; type: cell-based; settings: 24 hours, particle suspensions in water; read-out: MIC versus Coryne form
Description: as §1

[7] = Hydrolytic release of salicylic acid in buffer at 32° C., HPLC; type: physicochemical; settings: acetate buffer pH 5.5, 32° C.
Description: Examples 1, 3 and 4 (both A & B) and Comparative Examples 1 and 2 were evaluated for rate of release of salicylic acid. Samples were hydrolyzed at 32° C. using acetate buffer (pH 5.5) as relevant condition for typical skin pH. The materials were placed in 50 mL centrifuge tubes for elution using conventional elution protocols, shaking the tubes in a thermostatic environment. Aliquots were taken from the tubes at periodic intervals and immediately placed in a vial and analyzed by HPLC as soon as they were removed from the hydrolysis vessel.
The respective salicylic acid release rates of the Example 4A and Example 4B at pH 5.5 are compared in FIG. 5. The rates of Example 4B at pH of 5.5 and 7.29 are compared in FIG. 6.

Average % of particles below 10 μm [1] [%] | Average % of particles below 100 μm [1] [%] | Average % of particles below 200 μm [1] [%] | Volume Mean Particle Diameter [1] [μm] | MIC [4] [µg/mL] | salicylic acid release rate (in words) [5] | Salicylic Acid Release (Weight Percent of Maximum Release) ([5]; 0.05 hrs) | Salicylic Acid Release (Weight Percent of Maximum Release) ([5]; 1 hr) | Salicylic Acid Release (Weight Percent of Maximum Release) ([5]; 2 hrs) | SMILES | % Red (average reduction in bacterial growth rates) ([2]; 0.25 mg/ml) [%] | % Red (average reduction in bacterial growth rates) ([2]; 0.5 mg/ml) [%] | % Red (average reduction in bacterial growth rates) ([2]; 2.5 mg/ml) [%] | % Red (average reduction in bacterial growth rates) ([2]; 5 mg/ml) [%] | % Red (average reduction in bacterial growth rates) ([2]; 50 mg/ml) [%] | % Red (average reduction in bacterial growth rates) ([3]; 0.25 mg/ml) [%] | % Red (average reduction in bacterial growth rates) ([3]; 0.5 mg/ml) [%] | % Red (average reduction in bacterial growth rates) ([3]; 2.5 mg/ml) [%] | % Red (average reduction in bacterial growth rates) ([3]; 5 mg/ml) [%] | % Red (average reduction in bacterial growth rates) ([3]; 50 mg/ml) [%] | antibacterial activity (in words) [4] | further results
37.54 | 80.89 | 99.39 | 48.82 | ~2500 (≈ 5.98 mM) | rapid initial | 35.25 Weight Percent of Maximum Release | 47.44 Weight Percent of Maximum Release | 44.85 Weight Percent of Maximum Release | O=C(COCCOCC(=O)Oc1ccccc1C(=O)O)Oc1ccccc1C(=O)O [Example 2, Bis(2-carboxyphenyl)-3,6-dioxaoctanedioate] | 5 | 0 | 100 | 100 | 100 | 0 | 0 | 50 | 100 | 100 | modest | Particle size distribution, Comments [1]: Bimodal size; Salicylic Acid Release (Weight Percent of Maximum Release) ([5]; 4 hrs): 46.07 Weight Percent of Maximum Release; Salicylic Acid Release (Weight Percent of Maximum Release) ([5]; 6 hrs): 51.20 Weight Percent of Maximum Release; Salicylic Acid Release (Weight Percent of Maximum Release) ([5]; 24 hrs): 58.23 Weight Percent of Maximum Release
11.87 | 91.69 | 99.58 | 45.64 | 200 to 1000 (≈ 0.534 to 2.67 mM) | rapid initial | 20.035 Weight Percent of Maximum Release | 45.525 Weight Percent of Maximum Release | 54.910 Weight Percent of Maximum Release | O=C(COCC(=O)Oc1ccccc1C(=O)O)Oc1ccccc1C(=O)O [Example 1, Bis(2-carboxyphenyl)diglycolate] | 66 | 29 | 100 | 100 | 100 | 10 | 95 | 100 | 100 | 100 | strongest | MIC [6]: ~200 µg/mL (≈ 0.534 mM); antibacterial activity (in words) ([2]; Biosys, summary of Table 5): strongest; antibacterial activity (in words) ([3]; Biosys, summary of Table 4): strongest; time until hydrolysis is complete [7]: 2.5 h; Salicylic Acid Release (Weight Percent of Maximum Release) ([5]; 4 hrs): 59.795 Weight Percent of Maximum Release; Salicylic Acid Release (Weight Percent of Maximum Release) ([5]; 6 hrs): 54.890 Weight Percent of Maximum Release; Salicylic Acid Release (Weight Percent of Maximum Release) ([5]; 24 hrs): 64.520 Weight Percent of Maximum Release
32.1 | 96.03 | 99.99 | 28.85 | > 1670 | more moderate | 1.46 Weight Percent of Maximum Release | 4.93 Weight Percent of Maximum Release | 6.03 Weight Percent of Maximum Release | O=C(CCCCC(=O)Oc1ccccc1C(=O)O)Oc1ccccc1C(=O)O [Comparative Example 1, Bis(2-carboxyphenyl)adipate, reference compound] | 0 | 5 | 6 | 100 | 100 | 0 | 57 | 63 | 100 | 100 | little or no | MIC [6]: > 1670 µg/mL; hydrolysis completion ([7]; in four days): about 90%; Salicylic Acid Release (Weight Percent of Maximum Release) ([5]; 4 hrs): 6.81 Weight Percent of Maximum Release; Salicylic Acid Release (Weight Percent of Maximum Release) ([5]; 6 hrs): 10.06 Weight Percent of Maximum Release; Salicylic Acid Release (Weight Percent of Maximum Release) ([5]; 24 hrs): 26.42 Weight Percent of Maximum Release
